One series is described as follows: LD50 in mice. The format is in vivo. The following applies: mouse, in vivo, HCl salts, read-out: LD₅₀. The text has this: (§1) The LD₅₀ in mice of (+)-, (-) and [for comparison] There are no significant differences in the toxicity of the tested compounds.
The next series concerns the target T1, M₁ receptors (Rattus norvegicus, UniProt P08482).
T1 sequence (P08482 1-460): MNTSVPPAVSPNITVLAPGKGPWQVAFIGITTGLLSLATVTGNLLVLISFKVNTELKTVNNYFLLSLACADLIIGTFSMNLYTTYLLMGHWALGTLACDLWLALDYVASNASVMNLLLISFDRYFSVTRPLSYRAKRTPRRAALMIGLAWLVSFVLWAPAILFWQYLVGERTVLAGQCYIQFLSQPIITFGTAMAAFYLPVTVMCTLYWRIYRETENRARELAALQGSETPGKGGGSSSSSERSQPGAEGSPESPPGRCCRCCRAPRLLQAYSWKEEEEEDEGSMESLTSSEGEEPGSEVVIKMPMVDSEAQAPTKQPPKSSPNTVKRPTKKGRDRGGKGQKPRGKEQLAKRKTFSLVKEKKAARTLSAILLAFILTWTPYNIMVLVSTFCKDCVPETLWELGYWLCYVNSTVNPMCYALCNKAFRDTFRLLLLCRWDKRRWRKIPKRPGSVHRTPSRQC
The experiment in a line: biochemical. Particulars: for a:c: ratio Ki(3H-PZ):Ki(3H-CD). It counts as binding.

Series [1] deals with isolated guinea pig ileum. The series can be described thus: Isolated guinea pig ileum induced contraction. It counts as cell-based.
Series [2] has as its system AF64A and saline-injected rats. The experiment in a line: Passive avoidance (step-through) retention in AF64A and saline-injected rats. It counts as in vivo, Sprague-Dawley rats. Particulars: for Retention latency after 72 hours: 0.2mg./kg. per os post-training, cut-off 600 secs., nine rats per group; for net latencies of AF64A-treated groups compared with the group treated with double distilled water: p < 0.005 for (-)-, p < 0.05 for (±)-cis. The text has this:
Ethylcholine aziridinium ion (hereinafter denoted AF64A) is a selective presynaptic cholinergic neurotoxin, which on intracerebroventricular injection in rats induces persistent cholinergic hypofunction that mimics the cortical and hippocampal cholinegic deficiency and the cognitive impairments reported in SDAT. Accordingly, the possibility of reversal of the AF64A-induced effects by (-)- and [for comparison] (±)-cis-2-methylspiro(1,3-oxathiolan-5,3′)quinuclidine in the passive avoidance task was studied. In this experiment, the results of which are reported in Table 4, we investigated the effect of these substances (0.2mg./kg/., per os) on the retention after 72 hours of an inhibitory learning (passive avoidance-step through) task in AF64A and saline-injected rats, using a post-training drug treatment paradigm. The surgery carried out on the test animals (Sprague-Dawley rats raised by Charles River) was similar to that described in our prior published European Patent Application No. 0205247. The behavioral studies were performed one month after surgery.
The behavioral testing procedure comprised two phases, 1 and 2. In a pretest training procedure each rat was individually placed in a small lighted front compartment of a two-compartment box. After a 60 secs. familiarization/adaptation period, the door separating the two compartments was opened and a clock activated. The rat's latency to enter the large dark compartment of the box (to step-through) was measured. Immediately following entry into the dark compartment, the rat was subjected to an inescapable scrambled foot shock applied to the grid floor (0.6mA for 3 secs.). Sixty secs. after the termination of the shock, at the end of the training procedure, the rat was removed from the dark compartment and double distilled water, (-)- and (±)-cis-2-methylspiro(1,3-oxathiolan-5,3′)quinuclidine were administered per os. Rats were then returned to their home cage. Retention of the passive avoidance task was measured […]. after training by again placing the rat in the lighted front compartment, and after a 60 secs. adaptation period, measuring the latency to enter the dark compartment. The test session ended when a rat entered the dark compartment or after 600 secs. had elapsed. […]

For the next series, the system named is mice. The series can be described thus: LD50 in mice. The format is in vivo. The following applies: HCl salts.
Description: as §1

Series [3] deals with muscarinic receptors. It counts as binding, rat. The following applies: for Ki: rat forebrain homogenates, mean ± spread (n), Ki = IC50 ÷ (1 + C/KD), read-out: Ki(^3H-QNB).
The target in series [4] is muscarinic receptors. The experiment in a line: Displacement of 3H-cis-dioxolane (3H-CD) from rat forebrain homogenates. It counts as binding. Background: Displacement assays read how much labelled ligand stays bound in the presence of the test substance.
[5] abbreviates: index of M1 versus M2 selectivity.

The text below walks through data of patent publication EP0303391B1, “Optical isomers of a spiroquinuclidine derivative” (State of Israel Represented by the Prime Minister's Office …, priority 1987, dated 1989).

A word on the Ki: it is the equilibrium dissociation constant of an inhibitor or competing ligand from its target. As a reminder, the EC50 is the concentration that produces a half-maximal response. The low end stands for higher potency in that assay, the high end for lower potency in that assay.

Like-named read-outs stand apart in the source and are kept apart here.

Consider `CC1OC2(CS1)CN1CCC2CC1` (racemic) [(±)-cis-isomer, (±)-cis-2-methylspiro(1,3-oxathiolan-5,3')quinuclidine], for which the LD50 came to 40.8 mg/kg in the series “LD50 in mice” (female mice) and 45 mg/kg in “LD50 in mice” (male mice). Further, the “a:b” value on M₁ receptors was determined as 0.10. The Ki at M₁ receptors (Ki(^3H-PZ)) was 600 nM. Also, the “a:c” value at M₁ receptors (setting [5]) turned out to be 1.4. Moreover, in series [1], the type of activity result is recorded as “agonist”. The “Retention latency after 72 hours” value is reported as 407.9 (±72.1) seconds in series [2] (AF64A-treated rats) and 478.2 (±65.7) seconds in series [2] (saline-treated rats). Besides, in series [2] (AF64A-treated rats), the “net latencies of AF64A-treated groups compared with the group treated with double distilled water” value was “significantly longer”.

As to `CC1OC2(CS1)CN1CCC2CC1` (racemic) [(±)-trans-isomer, (±)-trans-2-methylspiro(1,3-oxathiolan-5,3')quinuclidine], the “a:b” value at M₁ receptors was 0.59. Further, the “a:c” value on M₁ receptors (index of M1 versus M2 selectivity, listed as 3) turned out to be 8.1. For the same molecule, on M₁ receptors (read-out: Ki(^3H-PZ)), the Ki worked out at 14600 ± 2900 nM. For the same molecule, the type of activity entry in series [1] was “agonist”.

Consider `CC1OC2(CS1)CN1CCC2CC1` (single isomer, unassigned; (+)) [(+)-cis-isomer, (+)-cis-2-methylspiro(1,3-oxathiolan-5,3')quinuclidine], for which the LD50 was determined as 45 mg/kg in “LD50 in mice” (female mice) and 39.1 mg/kg in the series “LD50 in mice” (male mice). For the same molecule, affinity on M₁ receptors (Ki(^3H-PZ)) was put at a Ki of 9600 nM. Also, in series [1], the type of activity entry is “inactive as agonist”.

As for `CC1OC2(CS1)CN1CCC2CC1` (single isomer, unassigned; (-)) [(-)-cis-isomer, (-)-cis-2-methylspiro(1,3-oxathiolan-5,3')quinuclidine], the LD₅₀ came to 40 mg/kg with mice (female mice) and 35 mg/kg in the series on mice (male mice). In addition, on M₁ receptors (Ki(^3H-PZ)), the Ki is 1100 nM. The “times more potent in ³H-QNB displacement than its racemate” value with muscarinic receptors [3] (relative to (±)-cis-isomer) was found to be 2.2. For the same molecule, in series [1], the type of activity entry is “agonist”. Further, the entries for the “Retention latency after 72 hours” value in series [2] (AF64A-treated rats) and in series [2] (saline-treated rats) were 563.5 (±23.6) seconds and 474 (±61.3) seconds, respectively. Further, in series [2] (AF64A-treated rats), the “net latencies of AF64A-treated groups compared with the group treated with double distilled water” value was “significantly longer”.

Molecule `CC(=O)OCC[N+](C)(C)C` [Acetylcholine] showed an EC50 in series [1] (Cavia porcellus, induced contraction of isolated guinea pig ileum) of 50 nM.

On to `C[N+](C)(C)CC#CCOC(=O)Nc1cccc(Cl)c1` [McN-A-343], for which, on M₁ receptors, the “a:b” value is given as 0.35. Further, the Ki turned out to be 4900 nM at M₁ receptors (Ki(^3H-PZ)); 14200 ± 1410 nM on muscarinic receptors [3]; 400 ± 100 nM at muscarinic receptors [4] (mean ± spread (n), Ki = IC50 ÷ (1 + C/KD)). For the same molecule, the “a:c” value on M₁ receptors (setting [5]) was 12.25.

On to `O=C1CCCN1CC#CCN1CCCC1` [Oxotremorine], for which the values for the Ki at M₁ receptors (Ki(^3H-PZ)), at muscarinic receptors [3] and on muscarinic receptors [4] (footnote *: expressed in M x 10^-10) were 600 nM, 1700 ± 300 nM and 0.96 ± 0.42 nM, respectively. In addition, the “a:c” value on M₁ receptors (setting [5]) came out at 625. Further, the “a:b” value on M₁ receptors (ratio Ki(3H-PZ):Ki(3H-QNB), index of M1 versus M2 selectivity) was determined as 0.35.
